Data as given in patent publication US9695155B2, “Herbicidal substituted pyrimidinyloxy benzene compounds” (E. I. DU PONT DE NEMOURS AND COMPANY, priority 2013, dated 2017).

Key:
large (Lg) crabgrass [1] = test: Test A preemergence; assay type: in vivo, Digitaria sanguinalis; conditions: for Crabgrass, Large plant response rating: 500 g ai/ha
Procedure, shortened: (§1)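 Greenhouse pot test, loam/sand soil. Formulation: non-phytotoxic solvent mix plus surfactant. Pre: directed spray onto soil after sowing. Post: plants at 1–2 leaf, 2–10 cm. Rated visually vs untreated controls at ~10 d, 0 (no effect) to 100 (complete control).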

pigweed [2] = test: Test A postemergence; assay type: in vivo, Amaranthus retroflexus
Procedure, shortened: as §1

Heteranthera limosa = test: Test B flooded paddy test; assay type: in vivo; conditions: Flood, 250 g ai/ha; 0 to 100 scale where 0 is no effect and 100 is complete control
Procedure, shortened: (§2)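 Seedlings are raised to two leaves, flooded to a depth of 3 cm and dosed by adding the compound to the floodwater. Water level is kept constant, and plants are scored visually versus controls 13–15 days later (0 = no effect, 100 = complete control).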

morningglory [3] = test: Test A preemergence; assay type: in vivo, Ipomoea spp.; conditions: for Morningglory plant response rating: 500 g ai/ha
Procedure, shortened: as §1

large (Lg) crabgrass [4] = test: Test A postemergence; assay type: in vivo, Digitaria sanguinalis
Procedure, shortened: as §1

velvetleaf [5] = test: Test A preemergence; assay type: in vivo, Abutilon theophrasti; conditions: for Velvetleaf plant response rating: 500 g ai/ha
Procedure, shortened: as §1

wheat [6] = test: Test A preemergence; assay type: in vivo, Triticum aestivum; conditions: for Wheat plant response rating: 500 g ai/ha
Procedure, shortened: as §1

corn [7] = test: Test A preemergence; assay type: in vivo, Zea mays; conditions: for Corn plant response rating: 500 g ai/ha
Procedure, shortened: as §1

barnyardgrass [8] = test: Test B flooded paddy test; assay type: in vivo, Echinochloa crus-galli; conditions: Flood, 250 g ai/ha; 0 to 100 scale where 0 is no effect and 100 is complete control
Procedure, shortened: as §2

sedge, umbrella = test: Test B flooded paddy test; assay type: in vivo, Cyperus difformis; conditions: Flood, 250 g ai/ha; 0 to 100 scale where 0 is no effect and 100 is complete control
Procedure, shortened: as §2

morningglory [9] = test: Test A postemergence; assay type: in vivo, Ipomoea spp.
Procedure, shortened: as §1

barnyardgrass [10] = test: Test A preemergence; assay type: in vivo, Echinochloa crus-galli; conditions: for Barnyardgrass plant response rating: 500 g ai/ha
Procedure, shortened: as §1

wheat [11] = test: Test A postemergence; assay type: in vivo, Triticum aestivum
Procedure, shortened: as §1

velvetleaf [12] = test: Test A postemergence; assay type: in vivo, Abutilon theophrasti
Procedure, shortened: as §1

giant foxtail [13] = test: Test A postemergence; assay type: in vivo, Setaria faberii
Procedure, shortened: as §1

rice = test: Test B flooded paddy test; assay type: in vivo, Oryza sativa; conditions: Flood, 250 g ai/ha; 0 to 100 scale where 0 is no effect and 100 is complete control
Procedure, shortened: as §2

corn [14] = test: Test A postemergence; assay type: in vivo, Zea mays
Procedure, shortened: as §1

barnyardgrass [15] = test: Test A postemergence; assay type: in vivo, Echinochloa crus-galli
Procedure, shortened: as §1

pigweed [16] = test: Test A preemergence; assay type: in vivo, Amaranthus retroflexus; conditions: for Pigweed plant response rating: 500 g ai/ha
Procedure, shortened: as §1

giant foxtail [17] = test: Test A preemergence; assay type: in vivo, Setaria faberii; conditions: for Foxtail, Giant plant response rating: 500 g ai/ha
Procedure, shortened: as §1

[18] = 125 g ai/ha, 0 to 100 scale where 0 is no effect and 100 is complete control
[19] = 0 to 100 scale, 0 no effect, 100 complete control, approx. 10 days
[20] = 500 g ai/ha, 0 to 100 scale, 0 no effect, 100 complete control
[21] = 0 to 100 scale where 0 is no effect and 100 is complete control
[22] = 500 g ai/ha, 0 to 100 scale where 0 is no effect and 100 is complete control

Clc1cnc(Oc2ccccc2-n2cc(Br)c(Br)n2)nc1 [Compound 19]
0: Plant response rating, Crabgrass, Large (large (Lg) crabgrass [1]; [18]) | Plant response rating, Morningglory (morningglory [3]; [18]) | Morningglory plant response rating (morningglory [3]; [19]) | Plant response rating, Crabgrass, Large (large (Lg) crabgrass [4]; [18]) | Plant response rating, Velvetleaf (velvetleaf [5]; [18]) | Plant response rating, Wheat (wheat [6]; [18]) | Wheat plant response rating (wheat [6]; [19]) | Plant response rating, Corn (corn [7]; [18]) | Corn plant response rating (corn [7]; [19]) | Plant response rating, Barnyardgrass (barnyardgrass [8]) | Plant response rating, Morningglory (morningglory [9]; [18]) | Plant response rating, Barnyardgrass (barnyardgrass [10]; [18]) | Plant response rating, Wheat (wheat [11]; [18]) | Plant response rating, Wheat (wheat [11]; [20]) | Plant response rating, Foxtail, Giant (giant foxtail [13]; [18]) | Plant response rating, Corn (corn [14]; [18]) | Plant response rating, Barnyardgrass (barnyardgrass [15]; [18]) | Plant response rating, Pigweed (pigweed [16]; [18])
90: Crabgrass, Large plant response rating (large (Lg) crabgrass [1]; [19]) | Plant response rating, Pigweed (pigweed [2]; [20]) | Foxtail, Giant plant response rating (giant foxtail [17]; [19])
40: Plant response rating, Ducksalad (Heteranthera limosa) | Plant response rating, Morningglory (morningglory [9]; [20])
30: Plant response rating, Pigweed (pigweed [2]; [18]) | Plant response rating, Sedge, Umbrella (sedge, umbrella) | Plant response rating, Velvetleaf (velvetleaf [12]; [18]) | Plant response rating, Foxtail, Giant (giant foxtail [13]; [20]) | Plant response rating, Corn (corn [14]; [20])
60: Plant response rating, Velvetleaf (velvetleaf [12]; [20])
20: Plant response rating, Crabgrass, Large (large (Lg) crabgrass [4]; [20]) | Velvetleaf plant response rating (velvetleaf [5]; [19]) | Barnyardgrass plant response rating (barnyardgrass [10]; [19]) | Plant response rating, Rice (rice) | Plant response rating, Barnyardgrass (barnyardgrass [15]; [20]) | Plant response rating, Foxtail, Giant (giant foxtail [17]; [18])
100: Pigweed plant response rating (pigweed [16]; [19])

C#Cc1cnc(Oc2cccc(C#N)c2-n2cc(Br)cn2)nc1 [Compound 215]
10: Crabgrass, Large plant response rating (large (Lg) crabgrass [4]; [18]) | Velvetleaf plant response rating (velvetleaf [5]; [21]) | Morningglory plant response rating (morningglory [9]; [18]) | Plant response rating, Morningglory (morningglory [9]; [22]) | Barnyardgrass plant response rating (barnyardgrass [10]; [21]) | Plant response rating, Foxtail, Giant (giant foxtail [13]; [22])
20: Crabgrass, Large plant response rating (0 to 100 scale) (large (Lg) crabgrass [1]; 125 g ai/ha) | Plant response rating, Corn (corn [14]; [22])
40: Velvetleaf plant response rating (velvetleaf [12]; [18])
80: Crabgrass, Large plant response rating (large (Lg) crabgrass [1]; [21]) | Plant response rating, Pigweed (pigweed [2]; [22])
0: Plant response rating, Ducksalad (Heteranthera limosa) | Morningglory plant response rating (0 to 100 scale) (morningglory [3]; 125 g ai/ha) | Morningglory plant response rating (morningglory [3]; [21]) | Velvetleaf plant response rating (0 to 100 scale) (velvetleaf [5]; 125 g ai/ha) | Wheat plant response rating (0 to 100 scale) (wheat [6]; 125 g ai/ha) | Wheat plant response rating (wheat [6]; [21]) | Corn plant response rating (0 to 100 scale) (corn [7]; 125 g ai/ha) | Corn plant response rating (corn [7]; [21]) | Plant response rating, Barnyardgrass (barnyardgrass [8]) | Plant response rating, Sedge, Umbrella (sedge, umbrella) | Barnyardgrass plant response rating (0 to 100 scale, 0 is no effect, 100 is complete control) (barnyardgrass [10]; 125 g ai/ha) | Wheat plant response rating (wheat [11]; [18]) | Plant response rating, Wheat (wheat [11]; [22]) | Foxtail, Giant plant response rating (giant foxtail [13]; [18]) | Plant response rating, Rice (rice) | Corn plant response rating (corn [14]; [18]) | Barnyardgrass plant response rating (barnyardgrass [15]; [18]) | Foxtail, Giant plant response rating (0 to 100 scale) (giant foxtail [17]; 125 g ai/ha)
90: Pigweed plant response rating (0 to 100 scale) (pigweed [16]; 125 g ai/ha)
30: Plant response rating, Crabgrass, Large (large (Lg) crabgrass [4]; [22]) | Plant response rating, Barnyardgrass (barnyardgrass [15]; [22])
70: Pigweed plant response rating (pigweed [2]; [18])
50: Plant response rating, Velvetleaf (velvetleaf [12]; [22]) | Foxtail, Giant plant response rating (giant foxtail [17]; [21])
100: Pigweed plant response rating (pigweed [16]; [21])

Cc1ccc(Oc2ncc(Cl)cn2)c(-n2cc(Br)cn2)c1Br [Compound 202]
10: Crabgrass, Large plant response rating (large (Lg) crabgrass [4]; [18]) | Plant response rating, Sedge, Umbrella (sedge, umbrella) | Barnyardgrass plant response rating (barnyardgrass [10]; [21]) | Foxtail, Giant plant response rating (giant foxtail [13]; [18]) | Foxtail, Giant plant response rating (0 to 100 scale) (giant foxtail [17]; 125 g ai/ha)
20: Plant response rating, Morningglory (morningglory [9]; [22])
30: Pigweed plant response rating (pigweed [2]; [18]) | Plant response rating, Ducksalad (Heteranthera limosa) | Plant response rating, Foxtail, Giant (giant foxtail [13]; [22])
70: Crabgrass, Large plant response rating (large (Lg) crabgrass [1]; [21]) | Plant response rating, Velvetleaf (velvetleaf [12]; [22]) | Foxtail, Giant plant response rating (giant foxtail [17]; [21])
50: Plant response rating, Pigweed (pigweed [2]; [22]) | Plant response rating, Crabgrass, Large (large (Lg) crabgrass [4]; [22]) | Velvetleaf plant response rating (velvetleaf [12]; [18])
40: Crabgrass, Large plant response rating (0 to 100 scale) (large (Lg) crabgrass [1]; 125 g ai/ha)
0: Morningglory plant response rating (0 to 100 scale) (morningglory [3]; 125 g ai/ha) | Morningglory plant response rating (morningglory [3]; [21]) | Velvetleaf plant response rating (0 to 100 scale) (velvetleaf [5]; 125 g ai/ha) | Velvetleaf plant response rating (velvetleaf [5]; [21]) | Wheat plant response rating (0 to 100 scale) (wheat [6]; 125 g ai/ha) | Wheat plant response rating (wheat [6]; [21]) | Corn plant response rating (0 to 100 scale) (corn [7]; 125 g ai/ha) | Corn plant response rating (corn [7]; [21]) | Plant response rating, Barnyardgrass (barnyardgrass [8]) | Morningglory plant response rating (morningglory [9]; [18]) | Barnyardgrass plant response rating (0 to 100 scale, 0 is no effect, 100 is complete control) (barnyardgrass [10]; 125 g ai/ha) | Wheat plant response rating (wheat [11]; [18]) | Plant response rating, Wheat (wheat [11]; [22]) | Plant response rating, Rice (rice) | Corn plant response rating (corn [14]; [18]) | Plant response rating, Corn (corn [14]; [22]) | Barnyardgrass plant response rating (barnyardgrass [15]; [18]) | Plant response rating, Barnyardgrass (barnyardgrass [15]; [22]) | Pigweed plant response rating (0 to 100 scale) (pigweed [16]; 125 g ai/ha) | Pigweed plant response rating (pigweed [16]; [21])
